Results on 19 compounds are retold here after patent US9409884B2 (Rigel Pharmaceuticals, Inc., priority 2012, dated 2016).

This assay deals with AMPK. Description: AMPK activation, enzyme-linked immunosorbent assay. In kind it is biochemical. The settings on record: Table 13, compounds of Table 6. In short, it runs like this:
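AMPK activation by test compounds was measured by enzyme-linked immunosorbent assay.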
`N#Cc1ccc(CN2CCC(NC(=O)c3cc4cc(C(=O)N5CCN(c6cc(C(F)(F)F)cc(C(F)(F)F)c6)CC5)ccc4o3)CC2)cc1` [Compound 6-117, 5-(4-(3,5-bis(trifluoromethyl)phenyl)piperazine-1-carbonyl)-N-(1-(4-cyanobenzyl)piperidin-4-yl)benzofuran-2-carboxamide] registered an EC50 of 1000 to 10000 nM.

Consider `N#Cc1ccc(CN2CCC(NC(=O)c3cc4cc(C(=O)N5CCN(c6ccc(Cl)cc6Cl)CC5)ccc4o3)CC2)cc1` [Compound 6-118, N-(1-(4-cyanobenzyl)piperidin-4-yl)-5-(4-(2,4-dichlorophenyl)piperazine-1-carbonyl)benzofuran-2-carboxamide], for which the EC50 was less than 100 nM.

Take `COc1ccc(CN2CCC(NC(=O)c3cc4cc(C(=O)N5CCN(c6ccc(C(F)(F)F)cc6)CC5)ccc4o3)CC2)cc1` [Compound 6-119, N-(1-(4-methoxybenzyl)piperidin-4-yl)-5-(4-(4-(trifluoromethyl)phenyl)piperazine-1-carbonyl) benzofuran-2-carboxamide]: the EC50 was less than 100 nM.

In turn, `COc1ccc(CN2CCC(NC(=O)c3cc4cc(C(=O)N5CCN(c6cc(C(F)(F)F)cc(C(F)(F)F)c6)CC5)ccc4o3)CC2)cc1` [Compound 6-120, 5-(4-(3,5-bis(trifluoromethyl)phenyl)piperazine-1-carbonyl)-N-(1-(4-methoxybenzyl)piperidin-4-yl)benzofuran-2-carboxamide] gave an EC50 of less than 100 nM.

Regarding `COc1ccc(CN2CCC(NC(=O)c3cc4cc(C(=O)N5CCN(c6ccc(Cl)cc6Cl)CC5)ccc4o3)CC2)cc1` [Compound 6-121, 5-(4-(2,4-dichlorophcnyl)piperazine-1-carbonyl)-N-(1-(4-methoxybenzyl)piperidin-4-yl)benzofuran-2-carboxamide], the EC50 is less than 100 nM.

`N#Cc1ccc(CN2CCC(NC(=O)c3cc4cc(C(=O)N5CCC(S(=O)(=O)c6ccc(F)cc6)CC5)ccc4o3)CC2)cc1` [Compound 6-122, N-(1-(4-cyanobenzyl)piperidin-4-yl)-5-(4-(4-fluorophenylsulfonyl)piperidine-1-carbonyl) benzofuran-2-carboxamide] displayed an EC50 of 100 to 1000 nM.

The compound `CS(=O)(=O)c1ccc(CN2CCN(C(=O)c3ccc4oc(C(=O)NC5CCN(Cc6ccc(C#N)cc6)CC5)cc4c3)CC2)cc1` [Compound 6-123, N-(1-(4-cyanobenzyl)piperidin-4-yl)-5-(4-(4-(methylsulfonyl)benzyl)piperazine-1-carbonyl) benzofuran-2-carboxamide] registered an EC50 of less than 100 nM.

The compound `N#Cc1ccc(CN2CCC(NC(=O)c3cc4cc(C(=O)N5CCC(Oc6ccc(S(=O)(=O)C(F)(F)F)cc6)CC5)ccc4o3)CC2)cc1` [Compound 6-124, N-(1-(4-cyanobenzyl)piperidin-4-yl)-5-(4-(4-(trifluoromethylsulfonyl)phenoxy)piperidine-1-carbonyl)benzofuran-2-carboxamide] had an EC50 of less than 100 nM.

On to `COc1ccc(-c2cnn(C3CCN(C(=O)c4ccc5oc(C(=O)NC6CCN(Cc7ccc(C#N)cc7)CC6)cc5c4)CC3)c2)cc1` [Compound 6-125, N-(1-(4-cyanobenzyl)piperidin-4-yl)-5-(4-(4-(4-methoxyphenyl)-1H-pyrazol-1-yl)piperidine-1-carbonyl)benzofuran-2-carboxamide], for which the EC50 is less than 100 nM.

`Cc1cc2oc(C(=O)NC3CCN(Cc4ccc(C#N)cc4)CC3)cc2cc1NC(=O)C1CCN(c2ccc(C#N)cc2)CC1` [Compound 6-126, N-(2-(1-(4-cyanobenzyl)piperidin-4-ylcarbamoyl)-6-methylbenzofuran-5-yl)-1-(4-cyanophenyl)piperidine-4-carboxamide] had an EC50 of less than 100 nM.

On to `N#Cc1ccc(CN2CCC(NC(=O)c3cc4cc(C(=O)N5CCN(Cc6ccc(C(F)(F)F)cc6)CC5)ccc4o3)CC2)cc1` [Compound 6-127, N-(1-(4-cyanobenzyl)piperidin-4-yl)-5-(4-(4-(trifluoromethyl)benzyl)piperazine-1-carbonyl) benzofuran-2-carboxamide], for which the EC50 was less than 100 nM.

As to `N#Cc1ccc(CN2CCC(NC(=O)c3cc4cc(C(=O)N5CCN(Cc6ccc(S(=O)(=O)C(F)(F)F)cc6)CC5)ccc4o3)CC2)cc1` [Compound 6-128, N-(1-(4-cyanobenzyl)piperidin-4-yl)-5-(4-(4-(trifluoromethylsulfonyl)benzyl)piperazine-1-carbonyl)benzofuran-2-carboxamide], the EC50 was less than 100 nM.

In the case of `COc1ccc(CN2CCC(NC(=O)c3cc4cc(C(=O)N5CCN(Cc6ccc(C(F)(F)F)cc6)CC5)ccc4o3)CC2)cc1F` [Compound 6-129, N-(1-(3-fluoro-4-methoxybenzyl)piperidin-4-yl)-5-(4-(4-(trifluoromethyl)benzyl)piperazine-1-carbonyl) benzofuran-2-carboxamide], the EC50 is less than 100 nM.

`COc1ccc(CN2CCC(NC(=O)c3cc4cc(C(=O)N5CCN(Cc6ccc(S(C)(=O)=O)c(C)c6)CC5)ccc4o3)CC2)cc1F` [Compound 6-130, N-(1-(3-fluoro-4-methoxybenzyl)piperidin-4-yl)-5-(4-(3-methyl-4-(methylsulfonyl)benzyl)piperazine-1-carbonyl) benzofuran-2-carboxamide] showed an EC50 of less than 100 nM.

In turn, `COc1ccc(CN2CCC(NC(=O)c3cc4cc(C(=O)N5CCN(Cc6ccc(S(=O)(=O)C7CC7)cc6)CC5)ccc4o3)CC2)cc1F` [Compound 6-131, 5-(4-(4-(cyclopropylsulfonyl)benzyl)piperazine-1-carbonyl)-N-(1-(3-fluoro-4-methoxybenzyl)piperidin-4-yl)benzofuran-2-carboxamide] registered an EC50 of less than 100 nM.

`COc1ccc(CN2CCC(NC(=O)c3cc4cc(C(=O)N5CCN(Cc6ccc(S(C)(=O)=O)c(C(F)(F)F)c6)CC5)ccc4o3)CC2)cc1F` [Compound 6-132, N-(1-(3-fluoro-4-methoxybenzyl)piperidin-4-yl)-5-(4-(4-(methylsulfonyl)-3-(trifluoromethyl)benzyl)piperazine-1-carbonyl) benzofuran-2-carboxamide]: the EC50 is less than 100 nM.

`COc1ccc(CN2CCC(NC(=O)c3cc4cc(C(=O)N5CCN(Cc6ccc(S(C)(=O)=O)c(Cl)c6)CC5)ccc4o3)CC2)cc1F` [Compound 6-133, 5-(4-(3-chloro-4-(methylsulfonyl)benzyl)piperazine-1-carbonyl)-N-(1-(3-fluoro-4-methoxybenzyl)piperidin-4-yl)benzofuran-2-carboxamide] showed an EC50 of less than 100 nM.

The compound `COc1ccc(CN2CCC(NC(=O)c3cc4cc(C(=O)N5CCN(Cc6ccc(S(=O)(=O)C(F)(F)F)cc6)CC5)ccc4o3)CC2)cc1F` [Compound 6-134, N-(1-(3-fluoro-4-methoxybenzyl)piperidin-4-yl)-5-(4-(4-(trifluoromethylsulfonyl)benzyl)piperazine-1-carbonyl)benzofuran-2-carboxamide] yielded an EC50 of less than 100 nM.

`CS(=O)(=O)c1ccc(OC2CCN(C(=O)c3ccc4oc(C(=O)NC5CCN(Cc6ccc(OC(F)(F)F)cc6)CC5)cc4c3)CC2)cc1` [Compound 6-135, 5-(4-(4-(methylsulfonyl)phenoxy)piperidine-1-carbonyl)-N-(1-(4-(trifluoromethoxy)benzyl)piperidin-4-yl)benzofuran-2-carboxamide] had an EC50 of less than 100 nM.
